Source: ChEMBL document CHEMBL4024803, “New Steroidal 4-Aminoquinolines Antagonize Botulinum Neurotoxin Serotype A in Mouse Embryonic Stem Cell Derived Motor Neurons in Postintoxication Model” (J Med Chem, 2018)

Tested on: Mus musculus
Test: In vivo inhibition of Clostridium botulinum BoNT/A in CD1 mouse assessed as mouse survival at 1 mg/kg, ip administered 3 hrs post intoxication measured over 24 hrs relative to control
Assay type: functional

O=C(N/N=C/c1cc(O)c(O)cc1O)c1cc2ccccc2cc1O
survival at 1 mg/kg: 30%
